Test results: patent publication EP4570800A1, “CRYSTAL FORM OF PYRIDINOPYRIMIDINONE COMPOUND, ACID SALT THEREOF, CRYSTAL FORM OF ACID SALT THEREOF, AND USE” (Wuhan Humanwell Innovative Drug Research and Development …, priority 2022, dated 2024)

Target: T1, KRAS G12C::SOS1 (Homo sapiens, UniProt Q07889)
T1 sequence (Q07889 564-1049 limits assumed): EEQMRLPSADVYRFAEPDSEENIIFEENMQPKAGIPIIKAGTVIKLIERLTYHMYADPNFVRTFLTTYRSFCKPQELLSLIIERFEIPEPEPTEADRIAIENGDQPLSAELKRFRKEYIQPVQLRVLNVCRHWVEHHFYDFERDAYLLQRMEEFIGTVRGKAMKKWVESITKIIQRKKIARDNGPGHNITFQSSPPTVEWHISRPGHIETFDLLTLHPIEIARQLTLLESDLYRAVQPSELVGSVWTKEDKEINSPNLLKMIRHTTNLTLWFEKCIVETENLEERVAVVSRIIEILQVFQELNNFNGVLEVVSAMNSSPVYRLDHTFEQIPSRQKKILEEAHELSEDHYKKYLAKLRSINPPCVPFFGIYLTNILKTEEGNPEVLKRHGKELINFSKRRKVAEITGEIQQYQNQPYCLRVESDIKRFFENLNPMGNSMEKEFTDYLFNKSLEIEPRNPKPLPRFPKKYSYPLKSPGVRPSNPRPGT
Assay: Inhibition of KRAS G12C::SOS1 binding (anti-6his-Tb / anti-GST-XL665 fluorescence ratio)
Conditions: GST-KRAS G12C and His-SOS1

`Cc1nc(N[C@H](C)c2cccc(S(F)(F)(F)(F)F)c2)c2cn(C3(CF)CC3)c(=O)cc2n1` [Compound of formula I, (R)-6-(1-(fluoromethyl)cyclopropyl)-2-methyl-4-((1-(3-(pentafluorosulfanyl)phenyl)ethyl)amino)pyrido[4,3-d]pyrimidin-7(6H)-one] showed an IC50 of 3.94 nM.
